Assay results reported in the supplement of paper PMC13380429.

Legend:
Details in all cases: 72 h
[1] = system: Caco-2; experiment: relative viability EC50 (midpoint between 100% and the lowest measured viability); higher = less toxic
[2] = system: Caco-2; experiment: cell viability relative to DMSO; higher = less toxic
[3] = system: Caco-2; experiment: drug sensitivity score (DSS) for viability; higher = more toxic; extreme values may be limits of the assay
[4] = system: U2OS; experiment: relative viability EC50 (midpoint between 100% and the lowest measured viability); higher = less toxic
[5] = system: Vero E6; experiment: as above
[6] = system: Calu-3; experiment: as above
[7] = system: U2OS; experiment: cell viability relative to DMSO; higher = less toxic
[8] = system: Vero E6; experiment: as above
[9] = system: Calu-3; experiment: as above
[10] = system: U2OS; experiment: drug sensitivity score (DSS) for viability; higher = more toxic; extreme values may be limits of the assay
[11] = system: Vero E6; experiment: as above
[12] = system: Calu-3; experiment: as above
[13] = system: HepG2; experiment: cell viability relative to DMSO; higher = less toxic
[14] = system: HepG2; experiment: drug sensitivity score (DSS) for viability; higher = more toxic; extreme values may be limits of the assay
[15] = system: HepG2; experiment: relative viability EC50 (midpoint between 100% and the lowest measured viability); higher = less toxic

Structure (SMILES): COc1ccccc1OCC(O)COC(N)=O (stereo not drawn) [methocarbamol]
- relative viability EC50 [1]: > 10 µM
- cell viability ([2]; 1 nM): 102%
- cell viability ([2]; 10 nM): 98.4%
- cell viability ([2]; 100 nM): 98.3%
- cell viability ([2]; 1000 nM): 103%
- cell viability ([2]; 10000 nM): 100%
- drug sensitivity score [3]: 0

Structure (SMILES): CCOC(=O)[C@H](C)C[C@@H](Cc1ccc(-c2ccccc2)cc1)NC(=O)CCC(=O)O [sacubitril]
- relative viability EC50 [1]: > 10 µM
- relative viability EC50 [4]: > 10 µM
- relative viability EC50 [5]: > 10 µM
- relative viability EC50 [6]: > 10 µM
- cell viability ([2]; 1 nM): 94.4%
- cell viability ([2]; 10 nM): 95.3%
- cell viability ([2]; 100 nM): 101%
- cell viability ([2]; 1000 nM): 92.5%
- cell viability ([2]; 10000 nM): 100%
- cell viability ([7]; 1 nM): 101%
- cell viability ([7]; 10 nM): 98.5%
- cell viability ([7]; 100 nM): 96%
- cell viability ([7]; 1000 nM): 97.3%
- cell viability ([7]; 10000 nM): 97.5%
- cell viability ([8]; 1 nM): 93.6%
- cell viability ([8]; 10 nM): 106%
- cell viability ([8]; 100 nM): 91.3%
- cell viability ([8]; 1000 nM): 94.5%
- cell viability ([8]; 10000 nM): 107%
- cell viability ([9]; 1 nM): 91.6%
- cell viability ([9]; 10 nM): 96.6%
- cell viability ([9]; 100 nM): 99.4%
- cell viability ([9]; 1000 nM): 97.3%
- cell viability ([9]; 10000 nM): 98.5%
- drug sensitivity score [3]: 0
- drug sensitivity score [10]: 0
- drug sensitivity score [11]: 0
- drug sensitivity score [12]: 0

Structure (SMILES): CCc1ccc(CCOc2ccc(CC3SC(=O)NC3=O)cc2)nc1 (stereo not drawn) [pioglitazone]
- relative viability EC50 [1]: > 10 µM
- relative viability EC50 [4]: > 10 µM
- relative viability EC50 [5]: > 10 µM
- relative viability EC50 [6]: > 10 µM
- cell viability ([2]; 1 nM): 93.1%
- cell viability ([2]; 10 nM): 100%
- cell viability ([2]; 100 nM): 98.6%
- cell viability ([2]; 1000 nM): 92.4%
- cell viability ([2]; 10000 nM): 91.5%
- cell viability ([7]; 1 nM): 94.8%
- cell viability ([7]; 10 nM): 94.7%
- cell viability ([7]; 100 nM): 96%
- cell viability ([7]; 1000 nM): 97.8%
- cell viability ([7]; 10000 nM): 95.8%
- cell viability ([8]; 1 nM): 99%
- cell viability ([8]; 10 nM): 101%
- cell viability ([8]; 100 nM): 98.9%
- cell viability ([8]; 1000 nM): 83%
- cell viability ([8]; 10000 nM): 85.5%
- cell viability ([9]; 1 nM): 94.9%
- cell viability ([9]; 10 nM): 98.1%
- cell viability ([9]; 100 nM): 95.1%
- cell viability ([9]; 1000 nM): 106%
- cell viability ([9]; 10000 nM): 84.1%
- drug sensitivity score [3]: 0
- drug sensitivity score [10]: 0
- drug sensitivity score [11]: 2
- drug sensitivity score [12]: 0.1

Structure (SMILES): Cc1ccc(-c2nn(C(C)(C)C)c3ncnc(N)c23)cc1 [PP-1]
- relative viability EC50 [5]: 3.66 µM
- relative viability EC50 [6]: 1.94 µM
- cell viability ([2]; 1 nM): 102%
- cell viability ([2]; 10 nM): 96.2%
- cell viability ([2]; 100 nM): 103%
- cell viability ([2]; 1000 nM): 91.5%
- cell viability ([2]; 10000 nM): 59.7%
- cell viability ([7]; 1 nM): 100%
- cell viability ([7]; 10 nM): 94.8%
- cell viability ([7]; 100 nM): 104%
- cell viability ([7]; 1000 nM): 90.9%
- cell viability ([7]; 10000 nM): 55%
- cell viability ([8]; 1 nM): 107%
- cell viability ([8]; 10 nM): 104%
- cell viability ([8]; 100 nM): 103%
- cell viability ([8]; 1000 nM): 105%
- cell viability ([8]; 10000 nM): 48.7%
- cell viability ([13]; 1 nM): 106%
- cell viability ([13]; 10 nM): 91.8%
- cell viability ([13]; 100 nM): 92.8%
- cell viability ([13]; 1000 nM): 89.3%
- cell viability ([13]; 10000 nM): 69%
- cell viability ([9]; 1 nM): 85.9%
- cell viability ([9]; 10 nM): 96.9%
- cell viability ([9]; 100 nM): 94%
- cell viability ([9]; 1000 nM): 91.2%
- cell viability ([9]; 10000 nM): 43.9%
- drug sensitivity score [3]: 3.4
- drug sensitivity score [10]: 3.8
- drug sensitivity score [11]: 2.3
- drug sensitivity score [14]: 2.3
- drug sensitivity score [12]: 4.5

Structure (SMILES): Cc1cc2c(F)c(Oc3ncnn4cc(OC[C@@H](C)OC(=O)[C@H](C)N)c(C)c34)ccc2[nH]1 [brivanib-alaninate]
- relative viability EC50 [1]: > 10 µM
- relative viability EC50 [5]: > 10 µM
- relative viability EC50 [6]: > 10 µM
- cell viability ([2]; 1 nM): 91.8%
- cell viability ([2]; 10 nM): 98.5%
- cell viability ([2]; 100 nM): 88.2%
- cell viability ([2]; 1000 nM): 101%
- cell viability ([2]; 10000 nM): 86.3%
- cell viability ([7]; 1 nM): 94.2%
- cell viability ([7]; 10 nM): 101%
- cell viability ([7]; 100 nM): 92.5%
- cell viability ([7]; 1000 nM): 101%
- cell viability ([7]; 10000 nM): 73.1%
- cell viability ([8]; 1 nM): 93.1%
- cell viability ([8]; 10 nM): 96%
- cell viability ([8]; 100 nM): 96.5%
- cell viability ([8]; 1000 nM): 90.9%
- cell viability ([8]; 10000 nM): 88.2%
- cell viability ([9]; 1 nM): 90.8%
- cell viability ([9]; 10 nM): 103%
- cell viability ([9]; 100 nM): 95.3%
- cell viability ([9]; 1000 nM): 102%
- cell viability ([9]; 10000 nM): 86.5%
- drug sensitivity score [3]: 0.1
- drug sensitivity score [10]: 1
- drug sensitivity score [11]: 0
- drug sensitivity score [12]: 0.1

Structure (SMILES): CC(C)[C@H]1CC[C@H](C(=O)N[C@H](Cc2ccccc2)C(=O)O)CC1 [nateglinide]
- relative viability EC50 [1]: > 10 µM
- relative viability EC50 [5]: > 10 µM
- cell viability ([2]; 1 nM): 92.7%
- cell viability ([2]; 10 nM): 95.6%
- cell viability ([2]; 100 nM): 105%
- cell viability ([2]; 1000 nM): 106%
- cell viability ([2]; 10000 nM): 96.7%
- cell viability ([8]; 1 nM): 99.7%
- cell viability ([8]; 10 nM): 97%
- cell viability ([8]; 100 nM): 92.9%
- cell viability ([8]; 1000 nM): 93.8%
- cell viability ([8]; 10000 nM): 94.1%
- drug sensitivity score [3]: 0
- drug sensitivity score [11]: 0

Structure (SMILES): O=C(/C=C/c1ccc(O)c(O)c1)c1ccc(O)cc1O [butein]
- relative viability EC50 [4]: > 10 µM
- relative viability EC50 [5]: > 10 µM
- relative viability EC50 [6]: > 10 µM
- cell viability ([2]; 1 nM): 95.5%
- cell viability ([2]; 10 nM): 103%
- cell viability ([2]; 100 nM): 101%
- cell viability ([2]; 1000 nM): 92%
- cell viability ([2]; 10000 nM): 61.9%
- cell viability ([7]; 1 nM): 93.8%
- cell viability ([7]; 10 nM): 101%
- cell viability ([7]; 100 nM): 94.9%
- cell viability ([7]; 1000 nM): 96.9%
- cell viability ([7]; 10000 nM): 75.9%
- cell viability ([8]; 1 nM): 103%
- cell viability ([8]; 10 nM): 101%
- cell viability ([8]; 100 nM): 102%
- cell viability ([8]; 1000 nM): 99.6%
- cell viability ([8]; 10000 nM): 101%
- cell viability ([13]; 1 nM): 99.3%
- cell viability ([13]; 10 nM): 103%
- cell viability ([13]; 100 nM): 104%
- cell viability ([13]; 1000 nM): 93.4%
- cell viability ([13]; 10000 nM): 58.4%
- cell viability ([9]; 1 nM): 100%
- cell viability ([9]; 10 nM): 103%
- cell viability ([9]; 100 nM): 97.2%
- cell viability ([9]; 1000 nM): 112%
- cell viability ([9]; 10000 nM): 92.7%
- drug sensitivity score [3]: 3.2
- drug sensitivity score [10]: 1.4
- drug sensitivity score [11]: 0
- drug sensitivity score [14]: 3.2
- drug sensitivity score [12]: 0

Structure (SMILES): O=c1[nH]c([C@@H]2CCCN2)nc2c1oc1ccc(Cl)cc12
- relative viability EC50 [1]: > 10 µM
- relative viability EC50 [4]: > 10 µM
- cell viability ([2]; 1 nM): 96.9%
- cell viability ([2]; 10 nM): 87%
- cell viability ([2]; 100 nM): 87.5%
- cell viability ([2]; 1000 nM): 93.5%
- cell viability ([2]; 10000 nM): 83.1%
- cell viability ([7]; 1 nM): 95%
- cell viability ([7]; 10 nM): 100%
- cell viability ([7]; 100 nM): 93.4%
- cell viability ([7]; 1000 nM): 96.7%
- cell viability ([7]; 10000 nM): 90.9%
- cell viability ([8]; 1 nM): 103%
- cell viability ([8]; 10 nM): 99.7%
- cell viability ([8]; 100 nM): 104%
- cell viability ([8]; 1000 nM): 90.9%
- cell viability ([8]; 10000 nM): 71.8%
- cell viability ([13]; 1 nM): 97%
- cell viability ([13]; 10 nM): 98.2%
- cell viability ([13]; 100 nM): 104%
- cell viability ([13]; 1000 nM): 83.5%
- cell viability ([13]; 10000 nM): 60.3%
- drug sensitivity score [3]: 1.2
- drug sensitivity score [10]: 0
- drug sensitivity score [11]: 2.4
- drug sensitivity score [14]: 4.2

Structure (SMILES): Cc1cc(Nc2cc(N3CCN(C)CC3)nc(Sc3ccc(NC(=O)C4CC4)cc3)n2)n[nH]1 [tozasertib]
- relative viability EC50 [1]: > 10 µM
- relative viability EC50 [5]: > 10 µM
- relative viability EC50 [15]: 0.448 µM
- cell viability ([2]; 1 nM): 97.1%
- cell viability ([2]; 10 nM): 91.1%
- cell viability ([2]; 100 nM): 96.2%
- cell viability ([2]; 1000 nM): 97.7%
- cell viability ([2]; 10000 nM): 77.9%
- cell viability ([7]; 1 nM): 105%
- cell viability ([7]; 10 nM): 101%
- cell viability ([7]; 100 nM): 101%
- cell viability ([7]; 1000 nM): 86.2%
- cell viability ([7]; 10000 nM): 54.9%
- cell viability ([8]; 1 nM): 107%
- cell viability ([8]; 10 nM): 107%
- cell viability ([8]; 100 nM): 100%
- cell viability ([8]; 1000 nM): 84.2%
- cell viability ([8]; 10000 nM): 85%
- cell viability ([13]; 1 nM): 103%
- cell viability ([13]; 10 nM): 99.2%
- cell viability ([13]; 100 nM): 70.4%
- cell viability ([13]; 1000 nM): 72.4%
- cell viability ([13]; 10000 nM): 36.4%
- cell viability ([9]; 1 nM): 110%
- cell viability ([9]; 10 nM): 97.6%
- cell viability ([9]; 100 nM): 96.8%
- cell viability ([9]; 1000 nM): 89.1%
- cell viability ([9]; 10000 nM): 70.9%
- drug sensitivity score [3]: 1.1
- drug sensitivity score [10]: 4.4
- drug sensitivity score [11]: 1.6
- drug sensitivity score [14]: 9.1
- drug sensitivity score [12]: 2.2
